For test [1], the target named is Beta-3 adrenergic receptor (Homo sapiens, UniProt P13945). The test is described as follows: DRUGMATRIX: Adrenergic beta3 radioligand binding (ligand: [125I] Cyanopindolol). The test is classed as cell membranes, HEK293, Membrane. The note with it: Not Active = under 50% inhibition at 10 µM; for Ki: read-out: Ki.
Test [2] in a line: DRUGMATRIX: Calcium Channel Type L, Benzothiazepine radioligand binding (ligand: [3H] Diltiazem). The test is classed as cell membranes, Rattus norvegicus, Wistar, Brain, Membrane. The note with it: Not Active = under 50% inhibition at 10 µM.
Test [3] deals with C-C chemokine receptor type 2 (Homo sapiens, UniProt P41597). The test is classed as cell membranes, CHO-K1, Membrane. The conditions noted are these: cho-k1.
Sequence of C-C chemokine receptor type 2 (P41597 whole entry): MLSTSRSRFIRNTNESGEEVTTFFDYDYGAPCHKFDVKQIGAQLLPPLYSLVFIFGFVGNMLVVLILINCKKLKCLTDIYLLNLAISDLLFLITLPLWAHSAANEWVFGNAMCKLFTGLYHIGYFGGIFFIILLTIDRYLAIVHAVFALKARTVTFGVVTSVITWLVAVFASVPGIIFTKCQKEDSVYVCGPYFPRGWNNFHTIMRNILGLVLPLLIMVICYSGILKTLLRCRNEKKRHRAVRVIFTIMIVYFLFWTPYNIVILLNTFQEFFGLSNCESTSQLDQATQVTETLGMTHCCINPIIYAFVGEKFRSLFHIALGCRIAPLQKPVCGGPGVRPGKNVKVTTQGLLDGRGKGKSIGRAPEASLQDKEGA
In test [4] the target is T1, C-X-C chemokine receptor type 1 (Homo sapiens, UniProt P25024). Also: in other assays of this panel Not Active means under 50% inhibition at 10 µM.
T1 sequence (P25024 whole entry): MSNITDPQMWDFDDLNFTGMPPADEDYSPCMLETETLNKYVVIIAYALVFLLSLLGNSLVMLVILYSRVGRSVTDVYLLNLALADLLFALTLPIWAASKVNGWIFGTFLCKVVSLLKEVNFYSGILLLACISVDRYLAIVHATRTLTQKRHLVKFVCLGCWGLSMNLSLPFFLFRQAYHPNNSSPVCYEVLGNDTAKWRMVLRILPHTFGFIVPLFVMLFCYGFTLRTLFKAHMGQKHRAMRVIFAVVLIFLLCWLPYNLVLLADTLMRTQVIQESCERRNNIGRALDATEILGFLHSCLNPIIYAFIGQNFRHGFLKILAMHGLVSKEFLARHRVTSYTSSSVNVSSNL

The target in test [5] is Prostaglandin G/H synthase 1 (Homo sapiens, UniProt P23219). The test is described as follows: biochemical. The test is classed as tissue-based, Platelet. The conditions noted are these: platelet.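 Also: inhibition of COX-1 enzyme activity, with arachidonic acid supplied as substrate; in other assays of this panel Not Active means under 50% inhibition at 10 µM.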
Sequence of Prostaglandin G/H synthase 1 (P23219 whole entry): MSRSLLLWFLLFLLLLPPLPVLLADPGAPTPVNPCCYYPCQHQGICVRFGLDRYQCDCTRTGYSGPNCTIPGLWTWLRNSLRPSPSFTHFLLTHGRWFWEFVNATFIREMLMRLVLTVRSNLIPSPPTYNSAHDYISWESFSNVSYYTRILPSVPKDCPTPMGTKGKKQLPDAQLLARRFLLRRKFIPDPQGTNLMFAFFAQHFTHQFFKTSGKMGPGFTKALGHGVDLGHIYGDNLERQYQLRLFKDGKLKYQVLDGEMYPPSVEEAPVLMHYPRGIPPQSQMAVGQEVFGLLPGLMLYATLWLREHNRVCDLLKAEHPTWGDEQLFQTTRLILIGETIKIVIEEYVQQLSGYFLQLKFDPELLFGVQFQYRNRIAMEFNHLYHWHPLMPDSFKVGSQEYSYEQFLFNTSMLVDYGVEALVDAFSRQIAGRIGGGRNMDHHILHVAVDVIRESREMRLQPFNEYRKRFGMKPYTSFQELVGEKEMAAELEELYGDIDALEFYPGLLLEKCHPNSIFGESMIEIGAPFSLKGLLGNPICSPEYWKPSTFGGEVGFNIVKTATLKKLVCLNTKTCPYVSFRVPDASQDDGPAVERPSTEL
Test [6] is described as follows: DRUGMATRIX: Glutamate, NMDA, Phencyclidine radioligand binding (ligand: [3H] TCP). In kind it is cell membranes, Rattus norvegicus, Wistar, Cerebral cortex, Membrane. The note with it: Not Active = under 50% inhibition at 10 µM.
The target of test [7] is T2, Muscarinic acetylcholine receptor M5 (Homo sapiens, UniProt P08912). Also: in other assays of this panel Not Active means under 50% inhibition at 10 µM.
T2 sequence (P08912 whole entry): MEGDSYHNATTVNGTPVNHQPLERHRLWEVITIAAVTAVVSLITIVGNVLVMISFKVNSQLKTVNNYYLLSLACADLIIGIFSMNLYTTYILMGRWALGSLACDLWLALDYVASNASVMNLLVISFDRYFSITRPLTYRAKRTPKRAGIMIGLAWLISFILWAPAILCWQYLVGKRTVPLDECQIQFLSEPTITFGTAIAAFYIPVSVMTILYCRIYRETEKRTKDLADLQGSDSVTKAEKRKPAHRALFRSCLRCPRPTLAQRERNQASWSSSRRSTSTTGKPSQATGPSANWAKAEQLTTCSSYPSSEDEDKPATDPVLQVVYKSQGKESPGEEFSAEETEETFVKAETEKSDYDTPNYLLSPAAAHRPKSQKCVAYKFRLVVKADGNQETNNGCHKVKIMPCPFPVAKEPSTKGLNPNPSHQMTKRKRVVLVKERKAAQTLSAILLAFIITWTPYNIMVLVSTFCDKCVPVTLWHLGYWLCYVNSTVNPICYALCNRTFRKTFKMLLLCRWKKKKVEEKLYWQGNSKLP
In kind it is cell membranes, CHO-K1, Membrane. The conditions noted are these: for Ki: read-out: Ki.

Test [8] can be described thus: DRUGMATRIX: Platelet-Derived Growth Factor (PDGF) radioligand binding (ligand: [125I] PDGF). The conditions noted are these: nih3t3; Not Active = under 50% inhibition at 10 µM. In kind it is cell-based.
The target in test [9] is T3, Angiotensin-converting enzyme (Oryctolagus cuniculus, UniProt P12822).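 Also: enzymatic inhibition of angiotensin-converting enzyme measured with FAPGG as the substrate; in other assays of this panel Not Active means under 50% inhibition at 10 µM.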
T3 sequence (P12822 whole entry): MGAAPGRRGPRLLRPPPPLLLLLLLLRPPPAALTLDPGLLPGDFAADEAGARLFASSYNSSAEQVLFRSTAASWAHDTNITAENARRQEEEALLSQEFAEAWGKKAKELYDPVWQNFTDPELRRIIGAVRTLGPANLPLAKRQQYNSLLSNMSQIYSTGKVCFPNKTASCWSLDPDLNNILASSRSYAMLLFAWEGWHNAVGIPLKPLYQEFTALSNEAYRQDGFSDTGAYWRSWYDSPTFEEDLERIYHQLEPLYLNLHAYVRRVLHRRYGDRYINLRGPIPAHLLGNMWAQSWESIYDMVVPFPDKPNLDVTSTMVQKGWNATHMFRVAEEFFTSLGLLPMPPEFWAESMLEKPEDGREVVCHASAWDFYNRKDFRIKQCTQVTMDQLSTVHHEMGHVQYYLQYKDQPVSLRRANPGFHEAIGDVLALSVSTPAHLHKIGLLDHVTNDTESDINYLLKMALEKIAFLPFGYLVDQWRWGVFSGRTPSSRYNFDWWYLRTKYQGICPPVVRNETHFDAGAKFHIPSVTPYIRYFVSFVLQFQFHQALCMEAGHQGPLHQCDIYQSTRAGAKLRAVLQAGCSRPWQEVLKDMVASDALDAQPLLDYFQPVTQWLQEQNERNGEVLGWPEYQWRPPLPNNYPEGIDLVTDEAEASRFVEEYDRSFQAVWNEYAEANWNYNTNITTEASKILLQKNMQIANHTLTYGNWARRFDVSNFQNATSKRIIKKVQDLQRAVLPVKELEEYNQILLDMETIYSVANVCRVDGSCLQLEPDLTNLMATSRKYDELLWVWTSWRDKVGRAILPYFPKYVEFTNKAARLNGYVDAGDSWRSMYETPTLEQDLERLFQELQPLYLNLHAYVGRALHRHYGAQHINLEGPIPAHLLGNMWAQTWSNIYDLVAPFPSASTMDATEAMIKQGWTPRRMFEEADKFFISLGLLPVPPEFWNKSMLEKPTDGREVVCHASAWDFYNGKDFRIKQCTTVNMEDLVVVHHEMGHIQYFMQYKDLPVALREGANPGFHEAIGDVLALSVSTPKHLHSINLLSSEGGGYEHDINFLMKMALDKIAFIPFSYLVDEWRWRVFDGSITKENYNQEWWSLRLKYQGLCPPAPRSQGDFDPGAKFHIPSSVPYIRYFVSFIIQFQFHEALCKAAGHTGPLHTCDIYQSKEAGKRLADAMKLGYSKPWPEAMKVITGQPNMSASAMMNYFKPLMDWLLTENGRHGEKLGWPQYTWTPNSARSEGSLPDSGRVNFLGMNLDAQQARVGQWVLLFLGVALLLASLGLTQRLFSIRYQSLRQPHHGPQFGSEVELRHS
The test is described as follows: biochemical. The test is classed as tissue-based, Lung.

Test [10] has as its target T4, Cathepsin G (Homo sapiens, UniProt P08311).
T4 sequence (P08311 whole entry): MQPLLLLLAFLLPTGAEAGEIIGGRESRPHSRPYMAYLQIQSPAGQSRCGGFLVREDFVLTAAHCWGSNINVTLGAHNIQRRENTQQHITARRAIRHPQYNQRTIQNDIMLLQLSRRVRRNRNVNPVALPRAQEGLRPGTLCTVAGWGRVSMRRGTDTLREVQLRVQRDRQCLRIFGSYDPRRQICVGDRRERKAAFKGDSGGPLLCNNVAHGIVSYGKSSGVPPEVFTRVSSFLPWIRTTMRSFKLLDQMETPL
The test is classed as tissue-based. The note with it: neutrophil.

Sequence of Beta-3 adrenergic receptor (P13945 whole entry): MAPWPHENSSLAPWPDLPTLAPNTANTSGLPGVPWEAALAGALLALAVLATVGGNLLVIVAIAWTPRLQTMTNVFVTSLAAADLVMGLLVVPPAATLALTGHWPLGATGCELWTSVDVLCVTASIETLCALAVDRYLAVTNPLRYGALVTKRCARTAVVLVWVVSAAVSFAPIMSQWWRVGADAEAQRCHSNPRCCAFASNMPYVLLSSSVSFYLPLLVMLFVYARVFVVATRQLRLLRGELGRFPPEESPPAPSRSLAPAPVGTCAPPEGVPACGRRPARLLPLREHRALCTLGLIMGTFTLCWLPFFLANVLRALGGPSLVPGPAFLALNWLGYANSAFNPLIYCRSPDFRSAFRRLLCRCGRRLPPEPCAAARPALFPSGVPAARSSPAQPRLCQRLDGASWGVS

The IC50 is the point on the concentration scale where inhibition reaches its midpoint. Usually Ki stands for a dissociation constant, usually derived from enzyme kinetics or from competition with a known ligand. Regarding `CCOC(=O)[C@H](CCc1ccccc1)N[C@@H](C)C(=O)N1[C@H](C(=O)O)C[C@@H]2CCC[C@@H]21`, the half-maximal inhibitory concentration (IC50) result in test [1] (hek293), in test [2], in [3], in [4], in [5] and in test [6] was “Not Active” each time. Further, the IC50 entry in test [7] (cho-k1), in test [8], in test [9] and in test [10] was “Not Active” each time. Moreover, the inhibition constant (Ki) entry in [2], in test [6] and in test [8] was “Not Active” throughout.

With `CC(C)(C)NC(=O)[C@@H]1CN(Cc2cccnc2)CCN1C[C@@H](O)C[C@@H](Cc1ccccc1)C(=O)N[C@H]1c2ccccc2C[C@H]1O.O`, the IC50 entry in test [1] (hek293), in [2], in test [3], in test [4], in [5] and in [6] was “Not Active” throughout. Besides, the IC50 entry in test [7] (cho-k1), in [8], in [9] and in [10] was “Not Active” throughout. Also, the Ki entry in test [2], in test [6] and in test [8] was “Not Active” throughout.

Consider `CC1(C)[C@H]2CC[C@]1(C)C(=O)C2` [(-)-CAMPHOR], for which the IC50 result in test [1] (hek293), in [2], in test [3], in test [4], in [5] and in test [6] was “Not Active” throughout. The IC50 entry in [7] (cho-k1), in test [8], in [9] and in test [10] was “Not Active” in each case. Moreover, the Ki result in test [2], in test [6] and in test [8] was “Not Active” throughout.

On to `COc1ccc(CCN2CCC(Nc3nc4ccccc4n3Cc3ccc(F)cc3)CC2)cc1` [ASTEMIZOLE], for which the 50% inhibitory concentration (IC50) result is “Not Active” in test [3]; “Not Active” in test [4]; “Not Active” in test [5]; 703 nM in test [7] (read-out: IC50); “Not Active” in test [9]; “Not Active” in test [10]. Besides, in test [7], the Ki was 505 nM.

For `CN(C)CCCN1c2ccccc2CCc2ccc(Cl)cc21` [CLOMIPRAMINE], the concentration for half-maximal inhibition (IC50) entry was “Not Active” in test [1] (hek293); “Not Active” in [3]; “Not Active” in [4]; “Not Active” in test [5]; 53 nM in [7] (read-out: IC50); “Not Active” in test [9]. The IC50 result in test [10] is “Not Active”. Besides, the Ki in test [7] is 38 nM.

Turning to `Clc1ccccc1C(c1ccccc1)(c1ccccc1)n1ccnc1` [CLOTRIMAZOLE], the half-inhibitory concentration (IC50) in [1] (read-out: IC50) is 7210 nM; in [3], “Not Active”; in test [4], “Not Active”; in [5], “Not Active”; in [9], “Not Active”; in test [10] it was “Not Active”. Moreover, the Ki in [1] stood at 5410 nM.

Take `O=C(CCCN1CCC(O)(c2ccc(Cl)cc2)CC1)c1ccc(F)cc1` [HALOPERIDOL]: the IC50 entry in test [1] (hek293), in test [3], in test [4], in test [5], in test [9] and in test [10] was “Not Active” throughout.

`CN1CCN2c3ccccc3Cc3ccccc3C2C1` (stereo not given) [MIANSERIN]: the IC50 result in [1] (hek293) was “Not Active”; in test [3], “Not Active”; in test [4], “Not Active”; in test [5] it was “Not Active”; in test [7] (read-out: IC50) it was 320 nM; in [9], “Not Active”. The IC50 entry in test [10] is “Not Active”. Further, in [7], the Ki was 230 nM.

Consider `CC(C)(O)c1ccccc1CC[C@@H](SCC1(CC(=O)O)CC1)c1cccc(/C=C/c2ccc3ccc(Cl)cc3n2)c1` [MONTELUKAST], for which the IC50 was 4300 nM in test [1] (read-out: IC50); “Not Active” in test [3]; “Not Active” in test [4]; “Not Active” in test [5]; “Not Active” in test [9]; “Not Active” in [10]. In [1], the Ki was 3200 nM.

Regarding `CSc1ccc2c(c1)N(CCC1CCCCN1C)c1ccccc1S2` (stereo not given) [THIORIDAZINE], the IC50 entry in test [1] (hek293), in [3], in test [4], in [5], in [9] and in test [10] was “Not Active” in each case.

For the molecule `COc1cccc(C2(O)CCCCC2CN(C)C)c1` (stereo not given) [TRAMADOL], the IC50 entry in test [1] (hek293), in test [3], in test [4], in [5], in [7] (cho-k1) and in [9] was “Not Active” in each case. In addition, the IC50 result in test [10] is recorded as “Not Active”.
